Source: PubChem BioAssay AID256 (DTP/NCI, 2004)
Where “and” joins values, the source holds several entries; their conditions need not be identical. Equal entries are not always repeated. Toxic doses and inconclusive results are not listed. How the source made its calls: active means survival T/C of 150% or more; inactive means T/C below 125% in these data. Positions of bridges follow the written chain, without caps; N, C: chain ends. Non-standard residues stand in square brackets, D forms with d. Residues, ends and D or L forms follow the SMILES beside them. Chains are numbered I, II in the order given. *: point of attachment. Quinoxaline2carbonyl = O=C(c1cnc2ccccc2n1)*; NMeV = CN[CH](C(=O)O)C(C)C; NMeC = CN[CH](CS)C(=O)O

Tested on: CD2F1 mice, L1210 leukemia ip, survival T/C
Assay: NCI In Vivo Anticancer Drug Screen. Data for tumor model L1210 Leukemia (intraperitoneal) in CD2F1 (CDF1) mice
Conditions: higher = longer survival
How it was run: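 Each value reflects a quotient of treated over vehicle control outcomes in mice with a transplanted tumor.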

[1] = endpoint: mean survival time, dose: 100.0 mg/kg/injection, schedule: Q01DX009 (ip), vehicle: saline with Tween-80
[2] = endpoint: mean survival time, dose: 100.0 mg/kg/injection, schedule: Q04DX003 (ip), vehicle: saline with Tween-80
[3] = endpoint: mean survival time, dose: 200.0 mg/kg/injection, schedule: Q01DX009 (ip), vehicle: saline with Tween-80
[4] = endpoint: mean survival time, dose: 200.0 mg/kg/injection, schedule: Q04DX003 (ip), vehicle: saline with Tween-80
[5] = endpoint: mean survival time, dose: 400.0 mg/kg/injection, schedule: Q01DX009 (ip), vehicle: saline with Tween-80
[6] = endpoint: mean survival time, dose: 400.0 mg/kg/injection, schedule: Q04DX003 (ip), vehicle: saline with Tween-80
[7] = endpoint: mean survival time, dose: 25.0 mg/kg/injection, schedule: Q04DX003 (ip), vehicle: saline with Tween-80
[8] = endpoint: mean survival time, dose: 50.0 mg/kg/injection, schedule: Q04DX003 (ip), vehicle: saline with Tween-80
[9] = endpoint: mean survival time, dose: 50.0 mg/kg/injection, schedule: Q01DX001 (ip), vehicle: saline with Tween-80
[10] = endpoint: mean survival time, dose: 100.0 mg/kg/injection, schedule: Q01DX001 (ip), vehicle: saline with Tween-80
[11] = endpoint: mean survival time, dose: 200.0 mg/kg/injection, schedule: Q01DX001 (ip), vehicle: saline with Tween-80
[12] = endpoint: mean survival time, dose: 12.5 mg/kg/injection, schedule: Q01DX009 (ip), vehicle: saline with Tween-80
[13] = endpoint: mean survival time, dose: 25.0 mg/kg/injection, schedule: Q01DX009 (ip), vehicle: saline with Tween-80
[14] = endpoint: mean survival time, dose: 400.0 mg/kg/injection, schedule: Q01DX001 (ip), vehicle: saline with Tween-80

Measured: T/C

CC1(C)C(O)(C#N)C(C)(C)C1(O)C#N (stereo unspecified)
inactive: endpoint: mean survival time, dose: 6.25 mg/kg/injection, schedule: Q04DX003 (ip), vehicle: saline 102 % of control | endpoint: mean survival time, dose: 12.5 mg/kg/injection, schedule: Q04DX003 (ip), vehicle: saline 97 % of control

CCCN(CCC)CCC(=O)OCC
inactive: [1] 97 % of control | [2] 97 % of control | [3] 97 % of control | [4] 114 % of control | [5] 100 % of control | [6] 100 % of control

O=S(=O)(F)c1ccccc1
inactive: [7] 95 % of control | [8] 100 % of control | [2] 95 % of control and 97 % of control

Cc1cn(C2CC(OS(C)(=O)=O)C(COC(c3ccccc3)(c3ccccc3)c3ccccc3)O2)c(=O)[nH]c1=O (stereo unspecified)
inactive: endpoint: mean survival time, dose: 12.5 mg/kg/injection, schedule: Q01DX005 (ip), vehicle: other 95 % of control | endpoint: mean survival time, dose: 25.0 mg/kg/injection, schedule: Q01DX005 (ip), vehicle: other 90 % of control | endpoint: mean survival time, dose: 50.0 mg/kg/injection, schedule: Q01DX005 (ip), vehicle: other 91 % of control | endpoint: mean survival time, dose: 200.0 mg/kg/injection, schedule: Q01DX005 (ip), vehicle: other 91 % of control

CC1NC(=O)C(NC(=O)c2cnc3ccccc3n2)COC(=O)C(C(C)C)N(C)C(=O)C2CSSCC(C(=O)N(C)C(C(C)C)C(=O)OCC(NC(=O)c3cnc4ccccc4n3)C(=O)NC(C)C(=O)N2C)N(C)C1=O (stereo unspecified) (I: Quinoxaline2carbonyl-SA[NMeC][NMeV] / II: Quinoxaline2carbonyl-SA[NMeC][NMeV]; ester I:1-II:C, I:C-II:1; disulfide I:3-II:3; configuration not given here)
inactive: endpoint: mean survival time, dose: 11.2 micrograms/kg/injection, schedule: Q01DX009 (ip), vehicle: Klucel (hydroxypropylcellulose) (HPC) 101 % of control | endpoint: mean survival time, dose: 22.5 micrograms/kg/injection, schedule: Q01DX009 (ip), vehicle: Klucel (hydroxypropylcellulose) (HPC) 103 % of control | endpoint: mean survival time, dose: 45.0 micrograms/kg/injection, schedule: Q01DX009 (ip), vehicle: Klucel (hydroxypropylcellulose) (HPC) 105 % of control | endpoint: mean survival time, dose: 50.0 micrograms/kg/injection, schedule: Q01DX009 (ip), vehicle: other 114 % of control | endpoint: mean survival time, dose: 90.0 micrograms/kg/injection, schedule: Q01DX009 (ip), vehicle: Klucel (hydroxypropylcellulose) (HPC) 105 % of control | endpoint: mean survival time, dose: 180.0 micrograms/kg/injection, schedule: Q01DX009 (ip), vehicle: Klucel (hydroxypropylcellulose) (HPC) 100 % of control | endpoint: mean survival time, dose: 200.0 micrograms/kg/injection, schedule: Q01DX009 (ip), vehicle: other 115 % of control

NC1CS(=O)(=O)CC1O (stereo unspecified)
inactive: [2] 98 % of control | [4] 96 % of control | [6] 95 % of control

COc1ccc2c(c1)CCC1(C)C2=CC(=O)/C1=C\[O-].COc1ccc2c(c1)CCC1(C)C2=CC(=O)/C1=C\[O-].[Cu+2] (stereo unspecified)
inactive: [7] 96 % of control | [8] 87 % of control | [2] 86 % of control

COC1=C(OC)C(=O)C(N(C)C)=C(CO)C1=O
inactive: endpoint: median survival time, dose: 15.0 mg/kg/injection, schedule: Q01DX005 (ip), vehicle: saline 102 % of control | endpoint: median survival time, dose: 30.0 mg/kg/injection, schedule: Q01DX005 (ip), vehicle: saline 100 % of control | endpoint: median survival time, dose: 60.0 mg/kg/injection, schedule: Q01DX005 (ip), vehicle: saline 103 % of control | endpoint: median survival time, dose: 120.0 mg/kg/injection, schedule: Q01DX005 (ip), vehicle: saline 107 % of control

OCc1ccc(Cl)c(Cl)c1
inactive: [2] 97 % of control | [4] 102 % of control | [6] 96 % of control

NC(=S)N/N=C/c1ccc(-c2ccccc2)cc1
inactive: [2] 97 % of control

CC(=O)C1CCC2CC3CCCCC3N(C(C)=O)C2C1 (stereo unspecified)
inactive: [9] 107 % of control | [10] 105 % of control | [11] 100 % of control

CSc1ccc(O)c(C)c1
inactive: [2] 104 % of control | [3] 97 % of control | [4] 102 % of control | [6] 104 % of control

CC(=O)C(=O)O.CC(=O)C(=O)O.[NH-]C1CCCCC1[NH-].[Pt+2] (stereo unspecified)
inactive: endpoint: mean survival time, dose: 1.56 mg/kg/injection, schedule: Q04DX003 (ip), vehicle: other 109 % of control | endpoint: mean survival time, dose: 12.5 mg/kg/injection, schedule: Q04DX003 (ip), vehicle: other 120 % of control | endpoint: median survival time, dose: 25.0 mg/kg/injection, schedule: Q01DX009 (ip), vehicle: dextrose 87 % of control

CCCCOC(=O)C=O
inactive: [12] 101 % of control | [13] 105 % of control | endpoint: mean survival time, dose: 50.0 mg/kg/injection, schedule: Q01DX009 (ip), vehicle: saline with Tween-80 99 % of control

O=C(COc1ccc(Cl)c(Cl)c1)NCCc1ccccn1
inactive: [1] 95 % of control | [3] 97 % of control | [5] 95 % of control

COc1ccccc1C(O)(c1ccccc1OC)c1c(OC)cccc1OC
inactive: [1] 97 % of control | [3] 93 % of control | [5] 88 % of control

CC1=C(/C=C/C(C)=N/NC(N)=S)C(C)(C)CCC1
inactive: [12] 106 % of control | [13] 115 % of control | [7] 98 % of control | [8] 104 % of control

Cc1ccnc(N/C=C/c2cc[n+](C)cc2)c1
inactive: endpoint: mean survival time, dose: 75.0 mg/kg/injection, schedule: Q01DX001 (ip), vehicle: saline 105 % of control | endpoint: mean survival time, dose: 150.0 mg/kg/injection, schedule: Q01DX001 (ip), vehicle: saline 111 % of control | endpoint: mean survival time, dose: 300.0 mg/kg/injection, schedule: Q01DX001 (ip), vehicle: saline 114 % of control

CN(CCN1CCCC1)C(=O)C(O)(c1ccccc1)c1ccccc1
inactive: endpoint: mean survival time, dose: 100.0 mg/kg/injection, schedule: Q04DX003 (ip), vehicle: saline 96 % of control | endpoint: mean survival time, dose: 200.0 mg/kg/injection, schedule: Q04DX003 (ip), vehicle: saline 93 % of control

N#CC1(C#N)OC1(C#N)c1ccccc1 (stereo unspecified)
inactive: endpoint: mean survival time, dose: 3.0 mg/kg/injection, schedule: Q01DX009 (ip), vehicle: saline with Tween-80 101 % of control | endpoint: mean survival time, dose: 6.25 mg/kg/injection, schedule: Q01DX001 (ip), vehicle: saline with Tween-80 95 % of control | endpoint: mean survival time, dose: 12.0 mg/kg/injection, schedule: Q01DX009 (ip), vehicle: saline with Tween-80 98 % of control

CSc1nc(NC2OCC(O)C(O)C2O)c(Br)c(=O)[nH]1 (stereo unspecified)
inactive: endpoint: median survival time, dose: 12.5 mg/kg/injection, schedule: Q01DX005 (ip), vehicle: saline with Tween-80 101 % of control | endpoint: median survival time, dose: 25.0 mg/kg/injection, schedule: Q01DX005 (ip), vehicle: saline with Tween-80 101 % of control | endpoint: median survival time, dose: 50.0 mg/kg/injection, schedule: Q01DX005 (ip), vehicle: saline with Tween-80 101 % of control | endpoint: median survival time, dose: 100.0 mg/kg/injection, schedule: Q01DX005 (ip), vehicle: saline with Tween-80 101 % of control | endpoint: median survival time, dose: 200.0 mg/kg/injection, schedule: Q01DX005 (ip), vehicle: saline with Tween-80 101 % of control

CCCCCCCCCCCCCCCCCOc1c(I)cc(I)cc1I
inactive: [10] 86 % of control | [11] 94 % of control | [14] 91 % of control

O=S(=O)(NC1CCCC2C=CC=CC21)c1ccccc1 (stereo unspecified)
inactive: [10] 94 % of control | [11] 102 % of control | [14] 96 % of control

Cc1cc(=S)[nH]c2ccccc12
inactive: endpoint: mean survival time, dose: 37.5 mg/kg/injection, schedule: Q01DX009 (ip), vehicle: saline 91 % of control | endpoint: mean survival time, dose: 75.0 mg/kg/injection, schedule: Q01DX009 (ip), vehicle: saline 91 % of control | endpoint: mean survival time, dose: 150.0 mg/kg/injection, schedule: Q01DX009 (ip), vehicle: saline 96 % of control

COc1cc(/C=N/NC(=O)c2ccccc2)ccc1O
inactive: endpoint: mean survival time, dose: 100.0 mg/kg/injection, schedule: Q01DX009 (ip), vehicle: Klucel (hydroxypropylcellulose) (HPC) 97 % of control | endpoint: mean survival time, dose: 200.0 mg/kg/injection, schedule: Q01DX009 (ip), vehicle: Klucel (hydroxypropylcellulose) (HPC) 97 % of control | endpoint: mean survival time, dose: 400.0 mg/kg/injection, schedule: Q01DX009 (ip), vehicle: Klucel (hydroxypropylcellulose) (HPC) 97 % of control

O=C(Nc1cc2ccccc2o1)N1CCOCC1
inactive: [9] 94 % of control | [10] 97 % of control | [11] 100 % of control

CCOC(=O)NC(NC(=O)OCC)C(Cl)Cl
inactive: [10] 103 % of control | [11] 105 % of control | [14] 97 % of control

O=C1C=C(N2C3C4CCC(C4)C32)C(=O)C=C1c1ccccc1 (stereo unspecified)
inactive: [9] 96 % of control and 98 % of control and 108 % of control | [10] 121 % of control and 94 % of control and 96 % of control | [11] 115 % of control and 97 % of control and 102 % of control | [14] 102 % of control

COc1ccc(Cc2c[n+](C)cc3cc(N=O)c(OC)cc23)cc1O
inactive: endpoint: mean survival time, dose: 100.0 mg/kg/injection, schedule: Q01DX001 (ip), vehicle: saline 104 % of control | endpoint: mean survival time, dose: 200.0 mg/kg/injection, schedule: Q01DX001 (ip), vehicle: saline 102 % of control
